Results: US20250230193A1, “CYCLIC COMPOUND HAVING SELECTIVE KRAS INHIBITORY EFFECT ON HRAS AND NRAS” (CHUGAI SEIYAKU KABUSHIKI KAISHA, priority 2022, published 2025)
Where a SMILES comes first, the peptide text is derived from it. Bridges are numbered along the chain shown (N, C = ends). [ ]: non-standard residue; d: D form. The star is where a group is joined. hPhe(3,5-F2-4-CF3) = N[C@@H](CCc1cc(F)c(C(F)(F)F)c(F)c1)C(=O)O; NPrPhe(4-CF3) = CCCN[C@@H](Cc1ccc(C(F)(F)F)cc1)C(=O)O; NMeGly(cPent) = CN[C@H](C(=O)O)C1CCCC1; αMeI = CC[C@H](C)[C@](C)(N)C(=O)O; NMeD = CN[C@@H](CC(=O)O)C(=O)O; NMeL = CN[C@@H](CC(C)C)C(=O)O; Morpholide = C1CN(*)CCO1; Aze = O=C(O)[C@@H]1CCN1; Sar = CNCC(=O)O

Columns and labels:
[1] = biological target: GDP-bound NRAS wild-type protein (Homo sapiens, UniProt P01111); assay: Binding to NRAS by surface plasmon resonance (SPR), Single Cycle Kinetics; settings: for NRAS/KRAS (ratio of KD value with respect to NRAS to KD value with respect to KRAS) / NRAS/KRAS (ratio of KD value for NRAS to KD value for KRAS): GDP-bound NRAS wild-type vs GDP-bound KRAS wild-type
Sequence of GDP-bound NRAS wild-type protein (P01111 whole entry): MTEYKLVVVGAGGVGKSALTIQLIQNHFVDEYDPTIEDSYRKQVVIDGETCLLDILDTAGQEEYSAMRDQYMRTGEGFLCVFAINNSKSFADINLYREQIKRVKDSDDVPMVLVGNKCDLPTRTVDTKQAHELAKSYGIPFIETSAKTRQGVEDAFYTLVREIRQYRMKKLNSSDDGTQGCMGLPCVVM

[2] = biological target: GDP-bound HRAS wild-type protein (Homo sapiens, UniProt P01112); assay: Binding to HRAS by surface plasmon resonance (SPR), Single Cycle Kinetics; settings: for HRAS/KRAS (ratio of KD value with respect to HRAS to KD value with respect to KRAS) / HRAS/KRAS (ratio of KD value for HRAS to KD value for KRAS): GDP-bound HRAS wild-type vs GDP-bound KRAS wild-type
Sequence of GDP-bound HRAS wild-type protein (P01112 whole entry): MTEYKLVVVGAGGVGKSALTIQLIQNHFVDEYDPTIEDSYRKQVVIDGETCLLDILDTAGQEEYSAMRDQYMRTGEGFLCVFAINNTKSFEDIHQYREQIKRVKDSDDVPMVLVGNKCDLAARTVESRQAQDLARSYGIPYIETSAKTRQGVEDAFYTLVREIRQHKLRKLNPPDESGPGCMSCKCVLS

SMILES: CCCN1C(=O)CN(C)C(=O)[C@@H]2CCN2C(=O)[C@H]([C@@H](C)CC)NC(=O)[C@H](CC(C)C)N(C)C(=O)C[C@@H](C(=O)N2CCOCC2)N(C)C(=O)[C@H](C2CCCC2)N(C)C(=O)[C@](C)([C@@H](C)CC)NC(=O)[C@@H]2CCCN2C(=O)[C@H](CCc2cc(F)c(C(F)(F)F)c(F)c2)NC(=O)CN(C)C(=O)[C@@H]1Cc1ccc(C(F)(F)F)cc1 [PP0774] ([NMeL]I[Aze][Sar][NPrPhe(4-CF3)][Sar][hPhe(3,5-F2-4-CF3)]P[αMeI][NMeGly(cPent)][NMeD]-Morpholide; lactam N-11)
- NRAS/KRAS (ratio of KD value with respect to GDP-bound NRAS wild-type protein to KD value with respect to KRAS) ([1]; SPR): B (a compound having 3 or more and less than 10 is denoted as B)
- HRAS/KRAS (ratio of KD value with respect to GDP-bound HRAS wild-type protein to KD value with respect to KRAS) ([2]; SPR): B (a compound having 3 or more and less than 10 is denoted as B)

SMILES: CCOC[C@H]1C(=O)N[C@@H]([C@@H](C)CC)C(=O)N(C)CC(=O)N(C)[C@H]2C/C=C\CCN(C2=O)[C@@H](Cc2ccc(C)cc2)C(=O)N(C)CC(=O)N[C@@H](CCc2ccc(C(F)(F)F)c(Cl)c2)C(=O)N2C[C@@H](C)C[C@H]2C(=O)NC2(CC(C)(C)C2)C(=O)N(C)[C@@H](C2CCCC2)C(=O)N(C)[C@H](C(=O)N(C)CC)CC(=O)N1C [PP2451]
- NRAS/KRAS (ratio of KD value with respect to NRAS to KD value with respect to KRAS) ([1]; SPR): A (a compound having 10 or more and less than 20 is denoted as A)
- HRAS/KRAS (ratio of KD value with respect to HRAS to KD value with respect to KRAS) ([2]; SPR): A (a compound having 10 or more and less than 20 is denoted as A)

SMILES: CCO[C@@H]1C[C@H]2C(=O)NC3(CCCC3)C(=O)N(C)[C@@H](C3CCCC3)C(=O)N(C)[C@H](C(=O)N(C)C)CC(=O)N(C)[C@@H](CC(C)C)C(=O)N[C@@H]([C@@H](C)CC)C(=O)N(C)CC(=O)N(C)[C@H]3CCCCN(C3=O)[C@@H](Cc3ccc(C(F)(F)F)cc3)C(=O)N(C)CC(=O)N[C@@H](CCc3cc(F)c(C(F)(F)F)c(F)c3)C(=O)N2C1 [PP0579]
- NRAS/KRAS (ratio of KD value with respect to GDP-bound NRAS wild-type protein to KD value with respect to KRAS) ([1]; SPR): C (A compound having a KD ratio of 0.1 or more and less than 3 is denoted as C)
- HRAS/KRAS (ratio of KD value with respect to GDP-bound HRAS wild-type protein to KD value with respect to KRAS) ([2]; SPR): B (a compound having 3 or more and less than 10 is denoted as B)

SMILES: CCO[C@@H]1C[C@H]2C(=O)NC3(CCCC3)C(=O)N(C)[C@@H](C3CCCC3)C(=O)N(C)[C@H](C(=O)N(C)C)CC(=O)N(C)[C@@H](CC(C)C)C(=O)N[C@@H]([C@@H](C)CC)C(=O)N(C)CC(=O)N(C)[C@H]3C/C=C\CCN(C3=O)[C@@H](Cc3ccc(C(F)(F)F)cc3)C(=O)N(C)CC(=O)N[C@@H](CCc3ccc(Cl)c(Cl)c3)C(=O)N2C1 [PP2837]
- NRAS/KRAS (ratio of KD value with respect to GDP-bound NRAS wild-type protein to KD value with respect to KRAS) ([1]; class symbols): AA (a compound having 20 or more is denoted as AA)
- HRAS/KRAS (ratio of KD value with respect to GDP-bound HRAS wild-type protein to KD value with respect to KRAS) ([2]; class symbols): A (a compound having 10 or more and less than 20 is denoted as A)

SMILES: CCCN(C)C(=O)[C@@H]1CC(=O)N(C)[C@@H](C)C(=O)N[C@@H]([C@@H](C)CC)C(=O)N(C)CC(=O)N(C)[C@H]2C/C=C\CCN(C2=O)[C@@H](Cc2ccc(C(F)(F)F)cc2)C(=O)N(C)CC(=O)N[C@@H](CCc2cc(F)c(C(F)(F)F)c(F)c2)C(=O)N2C[C@H](OCC)C[C@H]2C(=O)NC2(CC(F)(F)C2)C(=O)N(C)[C@@H](C2CCCC2)C(=O)N1C [PP1731]
- NRAS/KRAS (ratio of KD value for NRAS to KD value for KRAS) ([1]; KD ratio, SPR): A (a compound having 10 or more and less than 20 is denoted as A)
- HRAS/KRAS (ratio of KD value for HRAS to KD value for KRAS) ([2]; KD ratio, SPR): A (a compound having 10 or more and less than 20 is denoted as A)

SMILES: CCC[C@H]1C(=O)N[C@@H]([C@@H](C)CC)C(=O)N(C)CC(=O)N(C)[C@H]2C/C=C\CCN(C2=O)[C@@H](Cc2ccc(C)cc2)C(=O)N(C)CC(=O)N[C@@H](CCc2ccc(C(F)(F)F)c(OC)c2)C(=O)N2C[C@H](OCC)C[C@H]2C(=O)NC2(CC(C)(C)C2)C(=O)N(C)[C@@H](C2CCCC2)C(=O)N(C)[C@H](C(=O)N(C)C)CC(=O)N1C [PP1892]
- NRAS/KRAS (ratio of KD value for NRAS to KD value for KRAS) ([1]; KD ratio, SPR): A (a compound having 10 or more and less than 20 is denoted as A)
- HRAS/KRAS (ratio of KD value for HRAS to KD value for KRAS) ([2]; KD ratio, SPR): B (a compound having 3 or more and less than 10 is denoted as B)

SMILES: CCC[C@@H]1C[C@H]2C(=O)NC3(CCCC3)C(=O)N(C)[C@@H](C3CCCC3)C(=O)N(C)[C@H](C(=O)N(C)C)CC(=O)N(C)[C@@H](CC(C)C)C(=O)N[C@@H]([C@@H](C)CC)C(=O)N(C)CC(=O)N(C)[C@H]3C/C=C\CCN(C3=O)[C@@H](Cc3ccc(C)cc3)C(=O)N(C)CC(=O)N[C@@H](CCc3cc(F)c(C(F)(F)F)c(F)c3)C(=O)N2C1 [PP2193]
- NRAS/KRAS (ratio of KD value with respect to NRAS to KD value with respect to KRAS) ([1]; SPR): A (a compound having 10 or more and less than 20 is denoted as A)
- HRAS/KRAS (ratio of KD value with respect to HRAS to KD value with respect to KRAS) ([2]; SPR): A (a compound having 10 or more and less than 20 is denoted as A)

SMILES: CC[C@H](C)[C@@H]1NC(=O)[C@H](CC(C)C)N(C)C(=O)C[C@@H](C(=O)N2CCOCC2)N(C)C(=O)[C@H](C2CCCC2)N(C)C(=O)C2(CCC2)NC(=O)[C@@H]2CC(F)(F)CN2C(=O)[C@H](CCc2ccc(C(F)(F)F)c(Cl)c2)NC(=O)CN(C)C(=O)[C@H](Cc2ccc(F)cc2)N2CCCCC[C@@H](C2=O)N(C)C(=O)CN(C)C1=O [PP0969]
- NRAS/KRAS (ratio of KD value with respect to NRAS to KD value with respect to KRAS) ([1]; KD ratio, SPR): B (a compound having 3 or more and less than 10 is denoted as B)
- HRAS/KRAS (ratio of KD value with respect to HRAS to KD value with respect to KRAS) ([2]; KD ratio, SPR): B (a compound having 3 or more and less than 10 is denoted as B)
